The target of assay [1] is Human recombinant PARP1 (Homo sapiens, UniProt P09874). The assay is described as follows: RBC HotSpot PARP1 radioisotope-based filter binding assay. Type of assay: biochemical. Conditions: 2.5 nM enzyme, histone H4, 10 μM 32P-NAD+; read-out: PARP1 IC50. Here is the method:
(§1) The following methods are for evaluating the in vitro biology properties of the test articles. • a. RBC HotSpot Poly(ADP-ribose) Polymerases 1 (PARP1) and Poly(ADP-ribose) Polymerases 2 (PARP2) Assays: The assay principle is radioisotope-based filter binding assay where incorporation of radioisotope-labeled NAD^+ into the substrate captured on filter is detected after washout free NAD^+. Data were analyzed using Excel and GraphPad Prism software for IC50 curve fits. Each assay was conducted with PJ34 as a positive control. • i. PARP1 assay: Human recombinant PARP1 at a final concentration of 2.5 nM was combined with histone H4 (20 μM) and test articles at various concentrations in reaction buffer (50 mM Tris-HCL, pH 8.0, 50 mM NaCl, 10 mM MgCl2, 1 mM DTT, 1% DMSO, and 20 μg/mL activated DNA). The solution was inoculated for 20 min at room temperature and the reaction initiated by adding [adenylate-^32P]-Nicotinamide Adenine Dinucleotide, ^32P-NAD^+ at a final concentration of 10 μM. After incubation for 2 hour at room temperature, the reaction mixture was filtered and washed with 0.75% phosphoric acid for radioactivity detection. • ii. PARP2 assay: Human recombinant PARP2 at a final concentration of 2.5 nM was combined with histone H3 (20 μM) and test articles at various concentrations in reaction buffer (50 mM Tris-HCL, pH 8.0, 50 mM NaCl, 10 mM MgCl2, 1 mM DTT, 1% DMSO, and 20 μg/mL activated DNA). The solution was inoculated for 20 min at room temperature and the reaction was initiated by adding [adenylate-^32P]-Nicotinamide Adenine Dinucleotide, ^32P-NAD^+ at a final concentration of 10 μM. After incubation for 2 hour at room temperature, the reaction mixture was filtered and washed with 0.75% phosphoric acid for radioactivity detection. • b. AR binding assay: AR in LNCaP cytosol was used for determining the binding affinity of test articles and the reference compound—progesterone (Sigma, Cat: E2785, St. Louis, MO). IC50s were determined using 8 concentrations/compound. Cytosol was plated at 200 μg/well (100 μL) into a 96-well conical polypropylene plate (Agilent, Cat: 5042-1385, Santa Clara, CA) and mixed with 3 μL of test compound. After adding 100 μL of ^3H-methyltrienolone (PerkinElmer, Cat: NET590250UC, San Jose, CA), the plate was sealed and shaken at 300 rpm at 4° C. for 24 hours. Post incubation, 100 μL of radioligand adsorption buffer containing 10 mM Tris-HCl, pH 7.4; 1.5 mM EDTA; 1 mM DTT; 0.25% charcoal; 0.0025% dextran was added to individual well. Plate was shaken for 15 min at 4′C followed by centrifugation at 3000 rpm for 30 min at 4° C. 150 μL of supernatant was transferred into scint-tube (PerkinElmer, Cat: 6000192) and mixed with 2 mL of Ultima Gold Cocktail (PerkinElmer, Cat: 6013329). Radioactivity was counted using a TriCarb 2910 TR scintillation counter (PerkinElmer). Inhibition of the radioactivity by test articles were calculated using the equation below: % Inhibition=(1−(Assay well−Average_LC)/(Average_HC−Average_LC))×100%.

Assay [2] addresses Human recombinant PARP2 (Homo sapiens, UniProt Q9UGN5). Kind of assay: RBC HotSpot PARP2 radioisotope-based filter binding assay. Type of assay: biochemical. Conditions: 2.5 nM enzyme, histone H3, 10 μM 32P-NAD+; read-out: PARP2 IC50. On the procedure:
as §1

The subject of assay [3] is LNCaP cells. Kind of assay: Cell proliferation assay (CellTiter Glo), LNCaP. As to conditions: Homo sapiens, 168 h, cell growth inhibition, six or seven days total treatment, read-out: LNCaP IC50. Type of assay: cell-based. On the procedure:
(§2) IC50 values were calculated and graphed using the model “log(inhibitor) vs. response—Variable slope” included in GraphPad Prism 5 (San Diego, CA). The Ki values were further calculated using the equation below where [L] was the radioligand concentration (1 nM) using in this study. Kd value was 0.332 nM. Ki=IC50/(1+[L]/Kd) c. AR transactivation: Human AR cloned into a CMV vector backbone was used for the transactivation study. HEK-293 cells were plated at 80,000 cells per well of a 24 well plate in DME+5% csFBS. Twenty four hours later, the cells were transfected using Lipofectamine (Invitrogen, Carlsbad, CA) with 0.25 μg GRE-LUC, 0.01 μg CMV-LUC (renilla luciferase) and 25 ng of the AR in OPTIMEM medium. The cells were treated 24 hrs after transfection with various ligands (10^−12 to 10^−5 M final concentrations) and luciferase assay were performed 48 hours after transfection. Firefly values were normalized to renilla luciferase values and the values were represented as relative light units (RLU). Agonist and antagonist assays for the test article were performed in the absence and in the combination with 0.1 nM R1881, respectively. Data were represented as EC50 (for agonists) and IC50 (for antagonists) obtained from four parameter logistics curve. Cell culture and proliferation assays: LNCaP, PC-3, 22RV1, MCF-7, HT-29, and HCT-116 cells were procured from American Type Culture Collection (ATCC). Cells were cultured in medium recommended by the ATCC. Cell culture medium was obtained from Fisher scientific (Waltham, MA) and serum was obtained from Hyclone (San Angelo, TX).
Cells were plated at varying density in the respective growth medium in 96 well plates. 24 hr later, cells were treated, in triplicate or quadruplicate, with test articles prepared in a range of concentrations by series dilution of DMSO stock solutions in growth medium and incubated for three to seven days. The number of viable 22RV1 and HT-29 cells was measured using CellTiter Glo assay (CTG, Promega, Madison, WI) after three days of treatment. The other types of cancer cells were re-treated at three or four days and the number of viable cells was measured using CTG assay after a total treatment time of six or seven days. Cell viability data were plotted using GraphPad Prism (GraphPad Software, Inc., San Diego, CA). In addition, a nonlinear regression model with a sigmoidal dose response and variable slope within GraphPad Prism was used to calculate the IC50 value of individual test articles. Additional cell proliferation assays: Other cancer cell lines are tested in a cell proliferation assay. For example, SK-OV-3 or OVCAR3 ovarian cancer cells are tested. Cells are cultured in medium recommended by the supplier (e.g., ATCC or JCRB Cell Bank), at 37° C. in a 5% CO2 environment. For the proliferation assay, cells are plated in the growth medium in 96 well plates. Seeding density is adjusted according to the cell type. 24 hr later, cells are treated, in triplicate or quadruplicate, with test articles prepared in a range of concentrations by series dilution of DMSO stock solutions in growth medium, and typically incubated for three to seven days, with test article-containing medium replaced after three or four days. The number of viable cells is measured using CellTiter Glo assay (CTG, Promega, Madison, WI) or similar. Cell viability data are plotted using GraphPad Prism (GraphPad Software, Inc., San Diego, CA). […]

Assay [4] concerns 22RV1 cells. Kind of assay: Cell proliferation assay (CellTiter Glo), 22RV1. Type of assay: cell-based. Conditions: Homo sapiens, 22Rv1, 72 h; cell growth inhibition, three days of treatment; read-out: 22RV1 IC50. On the procedure: as §2
Cells were plated at varying density in the respective growth medium in 96 well plates. 24 hr later, cells were treated, in triplicate or quadruplicate, with test articles prepared in a range of concentrations by series dilution of DMSO stock solutions in growth medium and incubated for three to seven days. The number of viable 22RV1 and HT-29 cells was measured using CellTiter Glo assay (CTG, Promega, Madison, WI) after three days of treatment. The other types of cancer cells were re-treated at three or four days and the number of viable cells was measured using CTG assay after a total treatment time of six or seven days. Cell viability data were plotted using GraphPad Prism (GraphPad Software, Inc., San Diego, CA). In addition, a nonlinear regression model with a sigmoidal dose response and variable slope within GraphPad Prism was used to calculate the IC50 value of individual test articles. Additional cell proliferation assays: Other cancer cell lines are tested in a cell proliferation assay. For example, SK-OV-3 or OVCAR3 ovarian cancer cells are tested. Cells are cultured in medium recommended by the supplier (e.g., ATCC or JCRB Cell Bank), at 37° C. in a 5% CO2 environment. For the proliferation assay, cells are plated in the growth medium in 96 well plates. Seeding density is adjusted according to the cell type. 24 hr later, cells are treated, in triplicate or quadruplicate, with test articles prepared in a range of concentrations by series dilution of DMSO stock solutions in growth medium, and typically incubated for three to seven days, with test article-containing medium replaced after three or four days. The number of viable cells is measured using CellTiter Glo assay (CTG, Promega, Madison, WI) or similar. Cell viability data are plotted using GraphPad Prism (GraphPad Software, Inc., San Diego, CA). In addition, a nonlinear regression model with a sigmoidal dose response and variable slope within GraphPad Prism is used to calculate the IC50 value of individual test articles. Similarly, HEK-293 and HeLa calls can also be tested by methods known in the art. • f. Nuclear translocation: LNCaP cells are plated on coverslips in 24 well plates in growth medium. Twenty-four hours after plating, medium is changed to RPMI+1% csFBS and the cells are maintained in this medium for two days. Medium is replaced again and the cells are treated. […]

For assay [5], the system named is PC-3 cells. The assay is described as follows: Cell proliferation assay (CellTiter Glo), PC-3. The format is cell-based. As to conditions: Homo sapiens, PC-3, 168 h; cell growth inhibition, six or seven days total treatment; read-out: PC-3 IC50. On the procedure:
as §2
(§3) Cells were plated at varying density in the respective growth medium in 96 well plates. 24 hr later, cells were treated, in triplicate or quadruplicate, with test articles prepared in a range of concentrations by series dilution of DMSO stock solutions in growth medium and incubated for three to seven days. The number of viable 22RV1 and HT-29 cells was measured using CellTiter Glo assay (CTG, Promega, Madison, WI) after three days of treatment. The other types of cancer cells were re-treated at three or four days and the number of viable cells was measured using CTG assay after a total treatment time of six or seven days. Cell viability data were plotted using GraphPad Prism (GraphPad Software, Inc., San Diego, CA). In addition, a nonlinear regression model with a sigmoidal dose response and variable slope within GraphPad Prism was used to calculate the IC50 value of individual test articles. Additional cell proliferation assays: Other cancer cell lines are tested in a cell proliferation assay. For example, SK-OV-3 or OVCAR3 ovarian cancer cells are tested. […] The number of viable cells is measured using CellTiter Glo assay (CTG, Promega, Madison, WI) or similar. […]

In assay [6] the test system is HCT-116 cells. Kind of assay: Cell proliferation assay (CellTiter Glo), HCT-116. As to conditions: Homo sapiens, HCT-116, 168 h; cell growth inhibition, six or seven days total treatment; read-out: HCT-116 IC50. The format is cell-based. On the procedure:
as §2, §3

Here are results for six compounds from patent US12398121B2 (Nuvation Bio Inc., priority 2018, dated 2025).

Structures are written as SMILES.

Chain of Human recombinant PARP1 (P09874 whole entry): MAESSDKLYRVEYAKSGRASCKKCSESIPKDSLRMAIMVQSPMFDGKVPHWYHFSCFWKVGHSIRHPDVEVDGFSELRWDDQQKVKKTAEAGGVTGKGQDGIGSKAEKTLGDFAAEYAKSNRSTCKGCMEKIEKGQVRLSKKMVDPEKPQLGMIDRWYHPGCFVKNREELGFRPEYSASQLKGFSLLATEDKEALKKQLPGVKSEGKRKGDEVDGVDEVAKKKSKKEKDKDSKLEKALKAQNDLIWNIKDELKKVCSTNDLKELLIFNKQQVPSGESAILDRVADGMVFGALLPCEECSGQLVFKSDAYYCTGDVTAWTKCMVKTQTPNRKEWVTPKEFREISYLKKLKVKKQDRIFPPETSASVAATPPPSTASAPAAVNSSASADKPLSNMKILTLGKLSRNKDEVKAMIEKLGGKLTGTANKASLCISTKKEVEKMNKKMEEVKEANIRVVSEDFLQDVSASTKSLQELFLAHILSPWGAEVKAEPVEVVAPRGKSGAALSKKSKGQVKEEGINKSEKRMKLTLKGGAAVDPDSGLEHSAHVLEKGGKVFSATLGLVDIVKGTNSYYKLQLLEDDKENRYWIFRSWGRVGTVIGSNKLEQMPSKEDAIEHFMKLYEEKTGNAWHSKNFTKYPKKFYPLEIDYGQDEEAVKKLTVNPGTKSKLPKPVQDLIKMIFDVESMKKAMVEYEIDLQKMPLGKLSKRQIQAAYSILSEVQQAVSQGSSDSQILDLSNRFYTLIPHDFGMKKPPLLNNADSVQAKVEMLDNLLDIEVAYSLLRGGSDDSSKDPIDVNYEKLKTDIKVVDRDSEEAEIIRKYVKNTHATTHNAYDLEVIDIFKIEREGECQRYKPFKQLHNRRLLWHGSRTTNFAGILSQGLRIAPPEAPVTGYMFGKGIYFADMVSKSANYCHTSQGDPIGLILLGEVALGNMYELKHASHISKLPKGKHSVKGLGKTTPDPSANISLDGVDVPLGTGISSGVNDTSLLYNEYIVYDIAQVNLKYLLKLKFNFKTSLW
Chain of Human recombinant PARP2 (Q9UGN5 whole entry): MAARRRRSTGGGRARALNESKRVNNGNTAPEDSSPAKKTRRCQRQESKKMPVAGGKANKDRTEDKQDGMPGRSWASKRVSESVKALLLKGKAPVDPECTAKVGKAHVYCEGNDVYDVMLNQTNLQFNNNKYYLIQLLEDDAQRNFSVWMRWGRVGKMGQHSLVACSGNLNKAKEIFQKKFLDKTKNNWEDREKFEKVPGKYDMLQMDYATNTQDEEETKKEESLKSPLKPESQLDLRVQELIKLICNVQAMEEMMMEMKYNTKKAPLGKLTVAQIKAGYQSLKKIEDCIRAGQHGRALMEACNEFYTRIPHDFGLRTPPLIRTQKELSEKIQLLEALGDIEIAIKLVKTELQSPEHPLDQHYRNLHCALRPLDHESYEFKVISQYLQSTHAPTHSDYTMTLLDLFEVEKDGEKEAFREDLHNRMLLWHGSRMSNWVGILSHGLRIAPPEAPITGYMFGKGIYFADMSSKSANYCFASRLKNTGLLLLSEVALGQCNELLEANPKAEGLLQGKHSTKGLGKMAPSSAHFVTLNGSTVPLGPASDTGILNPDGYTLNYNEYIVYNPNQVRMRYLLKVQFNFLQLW

As to `C[C@](O)(CS(=O)(=O)c1ccc(OCCCCCCN2CCN(C(=O)c3cc(Cc4n[nH]c(=O)c5ccccc45)ccc3F)CC2)cc1)C(=O)Nc1ccc(C#N)c(C(F)(F)F)c1` [Compound 1.96, (R)-N-(4-cyano-3-(trifluoromethyl)phenyl)-3-(4-(6-(4-(2-fluoro-5-((4-oxo-3,4-dihydrophthalazin-1-yl)methyl)benzoyl)piperazin-1-yl)hexyloxy)phenylsulfonyl)-2-hydroxy-2-methylpropanamide], the IC50 is 6 nM in assay [1] and 0.5 nM in assay [2].

Regarding `Cn1ncnc1[C@@H]1c2n[nH]c(=O)c3cc(F)cc(c23)N[C@H]1c1ccc(NC(=O)CCCCCNC(=O)c2ccc(N3C(=S)N(c4ccc(C#N)c(C(F)(F)F)c4)C(=O)C3(C)C)cc2F)cc1` [ent-1.3, 4-(3-(4-cyano-3-(trifluoromethyl)phenyl)-5,5-dimethyl-4-oxo-2-thioxoimidazolidin-1-yl)-2-fluoro-N-(6-((4-((8R,9S)-5-fluoro-9-(1-methyl-1H-1,2,4-triazol-5-yl)-3-oxo-2,7,8,9-tetrahydro-3H-pyrido[4,3,2-de]phthalazin-8-yl)phenyl)amino)-6-oxohexyl)benzamide], the IC50 in assay [1] is 79 nM; in assay [2] it was 16 nM; in assay [3], > 100000 nM.

For the compound `C[C@]12CC[C@@H]3c4ccc(O)cc4CC[C@H]3[C@@H]1CC[C@@H]2OCCCCCC(=O)N1CCN(C(=O)c2cc(Cc3n[nH]c(=O)c4ccccc34)ccc2F)CC1` [Compound 2.2, 4-(4-fluoro-3-(4-(6-((8R,9S,13S,14S,17S)-3-hydroxy-13-methyl-7,8,9,11,12,13,14,15,16,17-decahydro-6H-cyclopenta[a]phenanthren-17-yloxy)hexanoyl)piperazine-1-carbonyl)benzyl)phthalazin-1(2H)-one], the half-maximal inhibitory concentration (IC50) in assay [4] came to 390 nM.

`C[C@]12CCCC[C@@H]1CC[C@@H]1[C@@H]2CC[C@]2(C)[C@@H](OCCCCCC(=O)N3CCN(C(=O)c4cc(Cc5n[nH]c(=O)c6ccccc56)ccc4F)CC3)CC[C@@H]12` [Compound 1.115]: the half-inhibitory concentration (IC50) in assay [1] was 25.7 nM; in assay [2], 1.5 nM.

On to `Cn1ncnc1[C@H]1c2n[nH]c(=O)c3cc(F)cc(c23)N[C@@H]1c1ccc(NC(=O)CCCCCNC(=O)c2ccc(N3C(=S)N(c4ccc(C#N)c(C(F)(F)F)c4)C(=O)C3(C)C)cc2F)cc1` [Compound 1.3, 4-(3-(4-cyano-3-(trifluoromethyl)phenyl)-5,5-dimethyl-4-oxo-2-thioxoimidazolidin-1-yl)-2-fluoro-N-(6-((4-((8S,9R)-5-fluoro-9-(1-methyl-1H-1,2,4-triazol-5-yl)-3-oxo-2,7,8,9-tetrahydro-3H-pyrido[4,3,2-de]phthalazin-8-yl)phenyl)amino)-6-oxohexyl)benzamide], for which the IC50 in assay [1] was 2 nM; in assay [2] it was 0.5 nM; in assay [3], 490 nM; in assay [5], 8800 nM; in assay [6] it was > 30000 nM.

For `Cn1ncnc1[C@H]1c2n[nH]c(=O)c3cc(F)cc(c23)N[C@@H]1c1ccc(NC(=O)CCCCCO[C@H]2CC[C@H]3[C@@H]4CC[C@H]5CC(=O)CC[C@]5(C)[C@H]4CC[C@]23C)cc1` [Compound 1.4, 6-(((5S,8R,9S,10S,13S,14S,17S)-10,13-dimethyl-3-oxohexadecahydro-1H-cyclopenta[a]phenanthren-17-yl)oxy)-N-(4-(5-fluoro-9-(1-methyl-1H-1,2,4-triazol-5-yl)-3-oxo-2,7,8,9-tetrahydro-3H-pyrido[4,3,2-de]phthalazin-8-yl)phenyl)hexanamide], the IC50 in assay [1] amounted to 2 nM; in assay [2], 0.4 nM; in assay [3], 90 nM; in assay [5], 20 nM; in assay [6] it was 110 nM.
